Residue numbers refer to the chain shown, from its start.
Tests used:
[1] = molecular target: T1, hSSADH (human succinic semialdehyde dehydrogenase) (Homo sapiens, UniProt P51649); assay: product inhibition, NADH […], replots of slopes and intercepts; type: biochemical
T1 construct: gene ALDH5A1; purified recombinant homotetramer, expressed and purified as in Didiasova et al. 2024
T1 sequence (P51649 48-535): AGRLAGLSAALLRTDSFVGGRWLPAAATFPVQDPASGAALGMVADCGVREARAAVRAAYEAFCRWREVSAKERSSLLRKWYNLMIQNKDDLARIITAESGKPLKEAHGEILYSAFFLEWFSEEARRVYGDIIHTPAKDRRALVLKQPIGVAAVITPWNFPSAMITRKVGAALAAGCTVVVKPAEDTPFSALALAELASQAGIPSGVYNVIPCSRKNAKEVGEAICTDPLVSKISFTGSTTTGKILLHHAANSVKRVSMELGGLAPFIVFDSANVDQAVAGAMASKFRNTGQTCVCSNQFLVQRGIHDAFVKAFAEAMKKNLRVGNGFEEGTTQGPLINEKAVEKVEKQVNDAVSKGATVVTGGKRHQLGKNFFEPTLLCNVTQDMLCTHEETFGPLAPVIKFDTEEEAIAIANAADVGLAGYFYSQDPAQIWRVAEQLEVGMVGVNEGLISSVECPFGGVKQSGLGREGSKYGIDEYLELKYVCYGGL

[2] = molecular target: T2, hSSADH (human succinic semialdehyde dehydrogenase) (Homo sapiens, UniProt P51649, K214A); assay: intrinsic fluorescence quenching (ex […] nm, em […] nm), hyperbolic fit; type: binding; conditions: read-out: K DNAD+
T2 construct: gene ALDH5A1; purified recombinant homotetramer, expressed and purified as in Didiasova et al. 2024
T2 sequence (P51649 48-535 K214A): T1 sequence (P51649 48-535) with K167A

[3] = molecular target: T1, hSSADH (human succinic semialdehyde dehydrogenase); assay: as above; type: binding
[4] = molecular target: T3, hSSADH (human succinic semialdehyde dehydrogenase) (Homo sapiens, UniProt P51649, E306Q); assay: as above; type: binding; conditions: read-out: K DNAD+
T3 construct: gene ALDH5A1; purified recombinant homotetramer, expressed and purified as in Didiasova et al. 2024
T3 sequence (P51649 48-535 E306Q): T1 sequence (P51649 48-535) with E259Q

[5] = molecular target: T1, hSSADH (human succinic semialdehyde dehydrogenase); assay: initial rates, NADH fluorescence (ex […], em […] nm), global fit to Equation ([…]); type: biochemical; conditions: partial non-competitive substrate inhibition, co-substrate NAD+, pH 8, potassium phosphate
[6] = molecular target: the molecule itself; assay: not stated; purified recombinant hSSADH; the experiment on the oligomeric state is in Data S1 (not shown)
purified protein [7] = substrate: NC(=O)c1ccc[n+]([C@@H]2O[C@H](COP(=O)([O-])OP(=O)(O)OC[C@H]3O[C@@H](n4cnc5c(N)ncnc54)[C@H](O)[C@@H]3O)[C@@H](O)[C@H]2O)c1; assay: purified protein; type: biochemical, Homo sapiens; conditions: co-substrate SSA, pH 8, 100 mM potassium phosphate, 14°C, ordered bi-bi, partial substrate inhibition fit, varied: cofactor
purified protein [8] = substrate: O=CCCC(=O)O; assay: purified protein; type: biochemical, Homo sapiens; conditions: co-substrate NAD+, pH 8, 100 mM potassium phosphate, 14°C, ordered bi-bi, partial substrate inhibition fit

`NC(=O)C1=CN([C@@H]2O[C@H](COP(=O)(O)OP(=O)(O)OC[C@H]3O[C@@H](n4cnc5c(N)ncnc54)[C@H](O)[C@@H]3O)[C@@H](O)[C@H]2O)C=CC1` [NADH] was tested, and the Ki [1] was 15 ± 2 µM.

For `NC(=O)c1ccc[n+]([C@@H]2O[C@H](COP(=O)([O-])OP(=O)(O)OC[C@H]3O[C@@H](n4cnc5c(N)ncnc54)[C@H](O)[C@@H]3O)[C@@H](O)[C@H]2O)c1` [NAD^+], the Kd [2] was 2.5 ± 0.2 µM, the Kd [3] was 4.5 ± 0.8 µM and the Kd [4] was 4.3 ± 0.4 µM.

`O=CCCC(=O)O` [SSA] was tested, and the “From Equation (5) (14°C)” value [5] was 13 ± 3 µM.

B1: Human succinic semialdehyde dehydrogenase (enzyme)
chain: GRLAGLSAALLRTDSFVGGRWLPAAATFPVQDPASGAALGMVADCGVREARAAVRAAYEAFCRWREVSAKERSSLLRKWYNLMIQNKDDLARIITAESGKPLKEAHGEILYSAFFLEWFSEEARRVYGDIIHTPAKDRRALVLKQPIGVAAVITPWNFPSAMITRKVGAALAAGCTVVVKPAEDTPFSALALAELASQAGIPSGVYNVIPCSRKNAKEVGEAICTDPLVSKISFTGSTTTGKILLHHAANSVKRVSMELGGLAPFIVFDSANVDQAVAGAMASKFRNTGQTCVCSNQFLVQRGIHDAFVKAFAEAMKKNLRVGNGFEEGTTQGPLINEKAVEKVEKQVNDAVSKGATVVTGGKRHQLGKNFFEPTLLCNVTQDMLCTHEETFGPLAPVIKFDTEEEAIAIANAADVGLAGYFYSQDPAQIWRVAEQLEVGMVGVNEGLISSVECPFGGVKQSGLGREGSKYGIDEYLELKYVCYGGL
notes: Human succinic semialdehyde dehydrogenase (EC 1.2.1.24), gene ALDH5A1; this is surmised; also called hSSADH; WT hSSADH; source: recombinant, expressed and purified as described (Didiasova et al. 2024)
In the case of B1, the “stoichiometry N” value [6] is reported as 4.

B2: hSSADH (human succinic semialdehyde dehydrogenase) (Homo sapiens) (protein)
chain: T1 sequence (P51649 48-535)
notes: purified recombinant homotetramer, expressed and purified as in Didiasova et al. 2024
With B2 the Km (purified protein [7]) was 31 ± 5 µM, the kcat (purified protein [7]) was 26 ± 2 s⁻¹ and the Km (purified protein [8]) was 1.2 ± 0.2 µM. The kcat (purified protein [8]) was 26 ± 2 s⁻¹.

— publication PMC11681614, “A crucial active site network of titratable residues guides catalysis and NAD ^+ binding in human succinic semialdehyde dehydrogenase” (Protein Science : A Publication of the Protein Society, 2024)
